Patent US20260062443A1 (ALEXION PHARMACEUTICALS, INC., priority 2022, published 2026)

Biological target: T1, Human complement C1s enzyme (Homo sapiens, UniProt P09871)
T1 sequence (P09871 438-688 limits assumed): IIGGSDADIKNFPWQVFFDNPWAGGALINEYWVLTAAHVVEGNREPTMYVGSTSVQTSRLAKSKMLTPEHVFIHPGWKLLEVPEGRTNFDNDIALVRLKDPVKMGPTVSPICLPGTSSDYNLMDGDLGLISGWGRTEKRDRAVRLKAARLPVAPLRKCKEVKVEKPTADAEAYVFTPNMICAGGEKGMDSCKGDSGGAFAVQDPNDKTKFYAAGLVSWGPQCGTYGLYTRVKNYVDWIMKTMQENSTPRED
T1 sequence (P09871 16-437 partner limits assumed): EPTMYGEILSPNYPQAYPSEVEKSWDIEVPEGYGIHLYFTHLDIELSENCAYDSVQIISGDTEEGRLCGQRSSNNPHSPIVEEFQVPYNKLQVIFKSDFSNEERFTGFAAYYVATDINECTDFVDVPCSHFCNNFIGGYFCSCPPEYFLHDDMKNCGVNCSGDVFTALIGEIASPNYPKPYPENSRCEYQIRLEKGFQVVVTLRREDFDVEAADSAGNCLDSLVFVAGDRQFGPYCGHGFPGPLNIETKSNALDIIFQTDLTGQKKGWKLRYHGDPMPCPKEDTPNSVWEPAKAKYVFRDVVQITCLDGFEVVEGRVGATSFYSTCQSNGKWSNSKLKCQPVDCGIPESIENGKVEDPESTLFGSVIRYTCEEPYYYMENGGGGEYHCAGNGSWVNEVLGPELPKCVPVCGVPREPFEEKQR
Experiment: Human C1s enzyme assay
Type: biochemical
Conditions: human complement C1s enzyme 1.16 nM, substrate Z-L-Lys-SBzl 100 μM, 5 min preincubation; read-out: IC50 (Stars), C1s Inhibiting Activity
In short: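 IC50 from nonlinear regression of reaction rates versus compound concentration, with rates taken from A405 recorded at 30 s intervals over 30 min after adding 100 μM Z-L-Lys-SBzl plus 100 μM DTNB. Enzyme was human C1s purified from serum, 1.16 nM, given 5 min compound preincubation at room temperature, pH 7.5 Tris/1 M NaCl.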

Cc1ccc(Oc2cccc(C(=O)NCC(=O)N3[C@H]4C[C@@]4(C)C[C@H]3C(=O)N[C@H](C)c3cc4cnccc4[nH]3)c2)c(F)c1 [Compound 320, (1S,3S,5S)-N-((R)-1-(1H-pyrrolo[3,2-c]pyridin-2-yl)ethyl)-2-((3-(2-fluoro-4-methylphenoxy)benzoyl)glycyl)-5-methyl-2-azabicyclo[3.1.0]hexane-3-carboxamide]
IC50: < 0.1 µM

Cc1ccc(Oc2cccc(C(=O)NCC(=O)N3CC4(C[C@H]3C(=O)N[C@H](C)c3cc5cnccc5[nH]3)OCCO4)c2)c(F)c1 [Compound 321, (S)-N-((R)-1-(1H-pyrrolo[3,2-c]pyridin-2-yl)ethyl)-7-((3-(2-fluoro-4-methylphenoxy)benzoyl)glycyl)-1,4-dioxa-7-azaspiro[4.4]nonane-8-carboxamide]
IC50: < 0.1 µM

Cc1ccc(Oc2ccc(F)c(C(=O)NCC(=O)N3C[C@H](OC(F)F)C[C@H]3C(=O)NCc3cc4cnccc4[nH]3)c2)c(F)c1 [Compound 322, (2S,4R)-N-((1H-pyrrolo[3,2-c]pyridin-2-yl)methyl)-4-(difluoromethoxy)-1-((2-fluoro-5-(2-fluoro-4-methylphenoxy)benzoyl)glycyl) pyrrolidine-2-carboxamide]
IC50: < 0.1 µM

Cc1ccc(Oc2ccnc(C(=O)NCC(=O)N3C[C@H](OC(F)F)C[C@H]3C(=O)NCc3cc4cnccc4[nH]3)c2)c(F)c1 [Compound 323, N-(2-((2S,4R)-2-(((1H-pyrrolo[3,2-c]pyridin-2-yl)methyl)carbamoyl)-4-(difluoromethoxy)pyrrolidin-1-yl)-2-oxoethyl)-4-(2-fluoro-4-methylphenoxy)picolinamide]
IC50: < 0.1 µM

Cc1ccc(Nc2cccc(C(=O)NCC(=O)N3C[C@H](OC(F)F)C[C@H]3C(=O)NCc3cc4cnccc4[nH]3)c2)c(F)c1 [Compound 324, (2S,4R)-N-((1H-pyrrolo[3,2-c]pyridin-2-yl)methyl)-4-(difluoromethoxy)-1-((3-((2-fluoro-4-methylphenyl)amino)benzoyl)glycyl) pyrrolidine-2-carboxamide]
IC50: < 0.1 µM

Cc1ccc(COc2cccc(C(=O)NCC(=O)N3C[C@H](OC(F)F)C[C@H]3C(=O)NCc3cc4cnccc4[nH]3)c2)c(F)c1 [Compound 325, (2S,4R)-N-((1H-pyrrolo[3,2-c]pyridin-2-yl)methyl)-4-(difluoromethoxy)-1-((3-((2-fluoro-4-methylbenzyl)oxy)benzoyl)glycyl)pyrrolidine-2-carboxamide]
IC50: < 0.1 µM

Cc1ccc(Oc2cccc(C(=O)NCC(=O)N3C[C@H](OC(F)F)C[C@H]3C(=O)NCc3cc4cnccc4[nH]3)c2F)cc1 [Compound 327, (2S,4R)-N-((1H-pyrrolo[3,2-c]pyridin-2-yl)methyl)-4-(difluoromethoxy)-1-((2-fluoro-3-(p-tolyloxy)benzoyl)glycyl) pyrrolidine-2-carboxamide]
IC50: < 0.1 µM

Cc1cc(Oc2ccc(C)cc2F)cc(C(=O)NCC(=O)N2C[C@H](OC(F)F)C[C@H]2C(=O)NCc2cc3cnccc3[nH]2)c1 [Compound 328, (2S,4R)-N-((1H-pyrrolo[3,2-c]pyridin-2-yl)methyl)-4-(difluoromethoxy)-1-((3-(2-fluoro-4-methylphenoxy)-5-methylbenzoyl)glycyl)pyrrolidine-2-carboxamide]
IC50: < 0.1 µM

Cc1ccc2c(c1)oc1ccc(C(=O)NCC(=O)N3C[C@H](OC(F)F)C[C@H]3C(=O)NCc3cc4cnccc4[nH]3)cc12 [Compound 332, (2S,4R)-N-((1H-pyrrolo[3,2-c]pyridin-2-yl)methyl)-4-(difluoromethoxy)-1-((7-methyldibenzo[b,d]furan-2-carbonyl)glycyl)pyrrolidine-2-carboxamide]
IC50: < 0.1 µM

Cc1ccc2oc3ccc(C(=O)NCC(=O)N4C[C@H](OC(F)F)C[C@H]4C(=O)NCc4cc5cnccc5[nH]4)cc3c2c1 [Compound 334, (2S,4R)-N-((1H-pyrrolo[3,2-c]pyridin-2-yl)methyl)-4-(difluoromethoxy)-1-((8-methyldibenzo[b,d]furan-2-carbonyl)glycyl)pyrrolidine-2-carboxamide]
IC50: < 0.1 µM

Cc1cccc2c1oc1ccc(C(=O)NCC(=O)N3CCC[C@H]3C(=O)NCc3cc4cnccc4[nH]3)cc12 [Compound 336, (S)-N-((1H-pyrrolo[3,2-c]pyridin-2-yl)methyl)-1-((6-methyldibenzo[b,d]furan-2-carbonyl)glycyl)pyrrolidine-2-carboxamide]
IC50: < 0.1 µM

Cc1ccc(Oc2cccc(C(=O)NCC(=O)N3C[C@H](OC(F)F)C[C@H]3C(=O)NCc3cc4c(s3)CCNC4)c2)c(F)c1 [Compound 338, (2S,4R)-4-(difluoromethoxy)-1-((3-(2-fluoro-4-methylphenoxy)benzoyl)glycyl)-N-((4,5,6,7-tetrahydrothieno[3,2-c]pyridin-2-yl)methyl) pyrrolidine-2-carboxamide]
IC50: < 0.1 µM

Cc1ccc(Oc2cccc(C(=O)NCC(=O)N3C[C@H](OC(F)F)C[C@H]3C(=O)NCc3cc4c(s3)CNCC4)c2)c(F)c1 [Compound 339, (2S,4R)-4-(difluoromethoxy)-1-((3-(2-fluoro-4-methylphenoxy)benzoyl)glycyl)-N-((4,5,6,7-tetrahydrothieno[2,3-c]pyridin-2-yl)methyl) pyrrolidine-2-carboxamide]
IC50: < 0.1 µM

CN1CCc2cc(CNC(=O)[C@@H]3C[C@@H](OC(F)F)CN3C(=O)CNC(=O)c3ccc4c(c3)Oc3ccccc3S4)sc2C1 [Compound 346, (2S,4R)-4-(difluoromethoxy)-N-((6-methyl-4,5,6,7-tetrahydrothieno[2,3-c]pyridin-2-yl)methyl)-1-((phenoxathiine-3-carbonyl)glycyl) pyrrolidine-2-carboxamide]
IC50: > 1 µM

CN1CCc2sc(CNC(=O)[C@@H]3C[C@@H](OC(F)F)CN3C(=O)CNC(=O)c3ccc4c(c3)Oc3ccccc3S4)cc2C1 [Compound 347, (2S,4R)-4-(difluoromethoxy)-N-((5-methyl-4,5,6,7-tetrahydrothieno[3,2-c]pyridin-2-yl)methyl)-1-((phenoxathiine-3-carbonyl)glycyl) pyrrolidine-2-carboxamide]
IC50: > 1 µM

O=C(NCC(=O)N1C[C@H](OC(F)F)C[C@H]1C(=O)NCc1cc2cnccc2[nH]1)c1cc2c(cc1F)Sc1ccccc1O2 [Compound 355, (2S,4R)-N-((1H-pyrrolo[3,2-c]pyridin-2-yl)methyl)-4-(difluoromethoxy)-1-((2-fluorophenoxathiine-3-carbonyl)glycyl)pyrrolidine-2-carboxamide]
IC50: < 0.1 µM

O=C(NCC(=O)N1C[C@H](OC(F)F)C[C@H]1C(=O)NCc1cc2cnccc2[nH]1)c1ccc2c(c1)OCCS2 [Compound 356, (2S,4R)-N-((1H-pyrrolo[3,2-c]pyridin-2-yl)methyl)-4-(difluoromethoxy)-1-((2,3-dihydrobenzo[b][1,4]oxathiine-7-carbonyl)glycyl)pyrrolidine-2-carboxamide]
IC50: < 0.1 µM

CC(c1cccc(F)c1)c1ccc(C(=O)NCC(=O)N2CC3(C[C@H]2C(=O)NCc2cc4cnccc4[nH]2)OCCO3)s1 (stereo partly drawn) [Compound 357, (8S)-N-((1H-pyrrolo[3,2-c]pyridin-2-yl)methyl)-7-((5-(1-(3-fluorophenyl)ethyl)thiophene-2-carbonyl)glycyl)-1,4-dioxa-7-azaspiro[4.4]nonane-8-carboxamide]
IC50: 0.1 to 1 µM

Cc1ccc(Oc2cccc(C(=O)NCC(=O)N3C[C@H](OC(F)F)C[C@H]3C(=O)NCc3cc4cnccc4[nH]3)c2)s1 [Compound 366, (2S,4R)-N-((1H-pyrrolo[3,2-c]pyridin-2-yl)methyl)-4-(difluoromethoxy)-1-((3-((5-methylthiophen-2-yl)oxy)benzoyl)glycyl)pyrrolidine-2-carboxamide]
IC50: < 0.1 µM

COC[C@H]1C[C@@H](C(=O)NCc2cc3cnccc3[nH]2)N(C(=O)CNC(=O)c2cccc(Oc3ccc(C)cc3F)c2)C1 [Compound 367, (2S,4S)-N-((1H-pyrrolo[3,2-c]pyridin-2-yl)methyl)-1-((3-(2-fluoro-4-methylphenoxy)benzoyl)glycyl)-4-(methoxymethyl)pyrrolidine-2-carboxamide]
IC50: < 0.1 µM

CCc1ccc(Oc2cccc(C(=O)NCC(=O)N3C[C@H](OC(F)F)C[C@H]3C(=O)NCc3cc4cnccc4[nH]3)c2)s1 [Compound 368, (2S,4R)-4-(difluoromethoxy)-1-[2-[[3-[(5-ethyl-2-thienyl)oxy]benzoyl]amino]acetyl]-N-(1H-pyrrolo[3,2-c]pyridin-2-ylmethyl)pyrrolidine-2-carboxamide]
IC50: < 0.1 µM

O=C(NCC(=O)N1C[C@H](OC(F)F)C[C@H]1C(=O)NCc1cc2cnccc2[nH]1)c1ccc2oc3cccc(F)c3c2c1 [Compound 369, (2S,4R)-N-((1H-pyrrolo[3,2-c]pyridin-2-yl)methyl)-4-(difluoromethoxy)-1-((9-fluorodibenzo[b,d]furan-2-carbonyl)glycyl)pyrrolidine-2-carboxamide]
IC50: < 0.1 µM
